# In ChEMBL document CHEMBL1201861, “Genomics of Drug Sensitity in Cancer screening data, Wellcome Trust Sanger Institute”:
# Assays:
# Assay in all cases: cells
# COLO-824 = assay type: functional, cell-based, Homo sapiens; settings: Homo sapiens, COLO-824
# Description: SANGER: Inhibition of human COLO-824 cell growth in a cell viability assay.
# DMS-79 = assay type: functional, cell-based; settings: Homo sapiens;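 further: growth inhibition measured with a cell viability assay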
# Description: SANGER: Inhibition of human DMS-79 cell growth in a cell viability assay.
# EKVX = assay type: functional, cell-based, Homo sapiens; settings: Homo sapiens, EKVX;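 further: growth inhibition of human EKVX cells, read out with a cell viability assay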
# Description: SANGER: Inhibition of human EKVX cell growth in a cell viability assay.
# ETK-1 = assay type: functional, cell-based, Homo sapiens; settings: Homo sapiens, ETK-1;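 further: growth inhibition of human ETK-1 cells, read out with a cell viability assay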
# Description: SANGER: Inhibition of human ETK-1 cell growth in a cell viability assay.
# EW-18 = assay type: functional, cell-based; settings: Homo sapiens;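 further: growth inhibition of EW-18 cells, read out by a cell viability assay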
# Description: SANGER: Inhibition of human EW-18 cell growth in a cell viability assay.
# GI-1 = assay type: functional, cell-based, Homo sapiens; settings: Homo sapiens, GI-1;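 further: growth inhibition of human GI-1 cells, measured with a cell viability readout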
# Description: SANGER: Inhibition of human GI-1 cell growth in a cell viability assay.
# HCC1187 = assay type: functional, cell-based, Homo sapiens; settings: Homo sapiens, HCC1187;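 further: growth inhibition of HCC1187 cells, read out with a cell viability assay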
# Description: SANGER: Inhibition of human HCC1187 cell growth in a cell viability assay.
# HCC38 = assay type: functional, cell-based, Homo sapiens; settings: Homo sapiens, HCC38;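 further: cell viability assay on the human HCC38 cell line, with IC50 marking the concentration that inhibits cell growth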
# Description: SANGER: Inhibition of human HCC38 cell growth in a cell viability assay.
# HSC-3 = assay type: functional, cell-based, Homo sapiens; settings: Homo sapiens, HSC-3
# Description: SANGER: Inhibition of human HSC-3 cell growth in a cell viability assay.
# JEG-3 = assay type: functional, cell-based, Homo sapiens; settings: Homo sapiens, JEG-3;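 further: growth inhibition of human JEG-3 cells, read out with a cell viability assay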
# Description: SANGER: Inhibition of human JEG-3 cell growth in a cell viability assay.
# K5 = assay type: functional, cell-based, Homo sapiens; settings: Homo sapiens, K5
# Description: SANGER: Inhibition of human K5 cell growth in a cell viability assay.
# KARPAS-45 = assay type: functional, cell-based; settings: Homo sapiens;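 further: inhibition of cell line growth, read out through a viability assay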
# Description: SANGER: Inhibition of human KARPAS-45 cell growth in a cell viability assay.
# KU812 cell line = assay type: functional, cell-based; settings: Homo sapiens;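 further: growth inhibition of KU812 cells, read out with a cell viability assay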
# Description: SANGER: Inhibition of human KU812 cell growth in a cell viability assay.
# KYSE-140 = assay type: functional, cell-based, Homo sapiens; settings: Homo sapiens, KYSE-140;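 further: cell viability assay measuring growth inhibition in human KYSE-140 cells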
# Description: SANGER: Inhibition of human KYSE-140 cell growth in a cell viability assay.
# KYSE-270 = assay type: functional, cell-based, Homo sapiens; settings: Homo sapiens, KYSE-270;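 further: cell growth inhibition measured with a viability assay in the human KYSE-270 line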
# Description: SANGER: Inhibition of human KYSE-270 cell growth in a cell viability assay.
# LS-1034 = assay type: functional, cell-based, Homo sapiens; settings: Homo sapiens, LS-1034
# Description: SANGER: Inhibition of human LS-1034 cell growth in a cell viability assay.
# MDA-MB-157 = assay type: functional, cell-based, Homo sapiens; settings: Homo sapiens, MDA-MB-157
# Description: SANGER: Inhibition of human MDA-MB-157 cell growth in a cell viability assay.
# MDA-MB-231 = assay type: functional, cell-based, Homo sapiens; settings: Homo sapiens, MDA-MB-231
# Description: SANGER: Inhibition of human MDA-MB-231 cell growth in a cell viability assay.
# MEL-HO = assay type: functional, cell-based, Homo sapiens; settings: Homo sapiens, MEL-HO
# Description: SANGER: Inhibition of human MEL-HO cell growth in a cell viability assay.
# NB13 = assay type: functional, cell-based, Homo sapiens; settings: Homo sapiens, NB13;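 further: cell viability readout measuring growth inhibition of human NB13 cells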
# Description: SANGER: Inhibition of human NB13 cell growth in a cell viability assay.
# NB69 = assay type: functional, cell-based, Homo sapiens; settings: Homo sapiens, NB69;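 further: growth inhibition of NB69 cells, determined by a cell viability assay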
# Description: SANGER: Inhibition of human NB69 cell growth in a cell viability assay.
# NCI-H1304 = assay type: functional, cell-based; settings: Homo sapiens;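 further: growth inhibition of the cancer cell line, measured in a cell viability assay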
# Description: SANGER: Inhibition of human NCI-H1304 cell growth in a cell viability assay.
# NCI-H1355 = assay type: functional, cell-based, Homo sapiens; settings: Homo sapiens, NCI-H1355;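 further: growth inhibition of human NCI-H1355 cells, read out by a cell viability assay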
# Description: SANGER: Inhibition of human NCI-H1355 cell growth in a cell viability assay.
# NCI-H292 = assay type: functional, cell-based, Homo sapiens; settings: Homo sapiens, NCI-H292;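 further: growth inhibition of NCI-H292 cells, read out with a cell viability assay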
# Description: SANGER: Inhibition of human NCI-H292 cell growth in a cell viability assay.
# NCI-H596 = assay type: functional, cell-based, Homo sapiens; settings: Homo sapiens, NCI-H596;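 further: growth inhibition of NCI-H596 cells, read out with a cell viability assay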
# Description: SANGER: Inhibition of human NCI-H596 cell growth in a cell viability assay.
# NUGC-3 = assay type: functional, cell-based, Homo sapiens; settings: Homo sapiens, NUGC-3;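 further: growth inhibition of human NUGC-3 cells, read out with a cell viability assay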
# Description: SANGER: Inhibition of human NUGC-3 cell growth in a cell viability assay.
# OCI-AML2 = assay type: functional, cell-based; settings: Homo sapiens;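 further: growth inhibition of OCI-AML2 cells, read out with a cell viability assay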
# Description: SANGER: Inhibition of human OCI-AML2 cell growth in a cell viability assay.
# OMC-1 = assay type: functional, cell-based, Homo sapiens; settings: Homo sapiens, OMC-1;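 further: growth inhibition of the OMC-1 cell line, measured by a cell viability assay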
# Description: SANGER: Inhibition of human OMC-1 cell growth in a cell viability assay.
# RERF-LC-MS = assay type: functional, cell-based, Homo sapiens; settings: Homo sapiens, RERF-LC-MS;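 further: growth inhibition of human RERF-LC-MS cells, read out by a cell viability assay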
# Description: SANGER: Inhibition of human RERF-LC-MS cell growth in a cell viability assay.
# RPMI-7951 = assay type: functional, cell-based, Homo sapiens; settings: Homo sapiens, RPMI-7951
# Description: SANGER: Inhibition of human RPMI-7951 cell growth in a cell viability assay.
# SCC-15 = assay type: functional, cell-based, Homo sapiens; settings: Homo sapiens, SCC-15;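 further: growth inhibition of SCC-15 cells, read out with a cell viability assay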
# Description: SANGER: Inhibition of human SCC-15 cell growth in a cell viability assay.
# SK-LU-1 = assay type: functional, cell-based, Homo sapiens; settings: Homo sapiens, SK-LU-1;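 further: cell viability assay measuring growth inhibition of human SK-LU-1 cells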
# Description: SANGER: Inhibition of human SK-LU-1 cell growth in a cell viability assay.
# SK-PN-DW = assay type: functional, cell-based; settings: Homo sapiens;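 further: growth inhibition measured with a viability assay on these cells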
# Description: SANGER: Inhibition of human SK-PN-DW cell growth in a cell viability assay.
# SK-UT-1 = assay type: functional, cell-based, Homo sapiens; settings: Homo sapiens, SK-UT-1;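 further: growth inhibition of SK-UT-1 cells, measured by a cell viability assay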
# Description: SANGER: Inhibition of human SK-UT-1 cell growth in a cell viability assay.
# SW1783 = assay type: functional, cell-based; settings: Homo sapiens;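 further: cell growth inhibition measured with a viability assay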
# Description: SANGER: Inhibition of human SW1783 cell growth in a cell viability assay.
# SW626 = assay type: functional, cell-based, Homo sapiens; settings: Homo sapiens, SW626;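 further: growth inhibition of SW626 cells, measured with a cell viability assay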
# Description: SANGER: Inhibition of human SW626 cell growth in a cell viability assay.
# SW948 = assay type: functional, cell-based, Homo sapiens; settings: Homo sapiens, SW948;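 further: growth inhibition of SW948 cells, read out with a cell viability assay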
# Description: SANGER: Inhibition of human SW948 cell growth in a cell viability assay.
# SiHa = assay type: functional, cell-based, Homo sapiens; settings: Homo sapiens, SiHa;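 further: Viability-based readout of growth inhibition in SiHa cells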
# Description: SANGER: Inhibition of human SiHa cell growth in a cell viability assay.
# T84 = assay type: functional, cell-based, Homo sapiens; settings: Homo sapiens, T84;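 further: growth inhibition measured with a cell viability readout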
# Description: SANGER: Inhibition of human T84 cell growth in a cell viability assay.
# ALL-PO = assay type: functional, cell-based; settings: Homo sapiens;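 further: growth inhibition of ALL-PO cells, read out by a cell viability assay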
# Description: SANGER: Inhibition of human ALL-PO cell growth in a cell viability assay.
# ATN-1 = assay type: functional, cell-based; settings: Homo sapiens;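 further: growth inhibition of human ATN-1 cells, read out with a cell viability assay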
# Description: SANGER: Inhibition of human ATN-1 cell growth in a cell viability assay.
# BB30-HNC = assay type: functional, cell-based, Homo sapiens; settings: Homo sapiens, BB30-HNC;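 further: growth inhibition of the cultured cell line, read out by a cell viability assay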
# Description: SANGER: Inhibition of human BB30-HNC cell growth in a cell viability assay.
# CAL-85-1 = assay type: functional, cell-based; settings: Homo sapiens;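 further: growth inhibition of human CAL-85-1 cells, read out with a cell viability assay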
# TE-8 = assay type: functional, cell-based, Homo sapiens; settings: Homo sapiens, TE-8;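 further: growth inhibition of TE-8 cells, measured with a cell viability readout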
# Description: SANGER: Inhibition of human TE-8 cell growth in a cell viability assay.
# TK-10 = assay type: functional, cell-based, Homo sapiens; settings: Homo sapiens, TK-10;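 further: growth inhibition of TK-10 cells, read out in a cell viability assay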
# Description: SANGER: Inhibition of human TK10 cell growth in a cell viability assay.
# U-118-MG = assay type: functional, cell-based, Homo sapiens; settings: Homo sapiens, U-118-MG
# Description: SANGER: Inhibition of human U-118-MG cell growth in a cell viability assay.
# UO-31 = assay type: functional, cell-based; settings: Homo sapiens;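 further: cell viability assay measuring inhibition of cell growth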
# Description: SANGER: Inhibition of human U031 cell growth in a cell viability assay.
# UMUC3 = assay type: functional, cell-based, Homo sapiens; settings: Homo sapiens, UMUC3;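 further: growth inhibition of human UM-UC-3 cells, read out with a cell viability assay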
# Description: SANGER: Inhibition of human UM-UC-3 cell growth in a cell viability assay.
# CCRF-CEM = assay type: functional, cell-based; settings: Homo sapiens;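 further: inhibition of CCRF-CEM cell growth, measured by a cell viability assay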
# Description: SANGER: Inhibition of human CCRF-CEM cell growth in a cell viability assay.
# COLO-320-HSR = assay type: functional, cell-based; settings: Homo sapiens;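 further: growth inhibition of COLO-320-HSR cells, determined with a cell viability assay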
# Description: SANGER: Inhibition of human COLO-320-HSR cell growth in a cell viability assay.
# COLO-668 = assay type: functional, cell-based, Homo sapiens; settings: Homo sapiens, COLO-668
# Description: SANGER: Inhibition of human COLO-668 cell growth in a cell viability assay.
# COLO-684 = assay type: functional, cell-based; settings: Homo sapiens
# Description: SANGER: Inhibition of human COLO-684 cell growth in a cell viability assay.
compound,measurement,setting,value
C[C@]1(O)C[C@@H](c2nc(-c3ccc4ccc(-c5ccccc5)nc4c3)c3c(N)nccn32)C1 [LINSITINIB],IC50,COLO-824,> 2.56 µM
same,IC50,DMS-79,> 2.56 µM
same,IC50,EKVX,1.35 µM
same,IC50,ETK-1,> 2.56 µM
same,IC50,EW-18,0.27 µM
same,IC50,GI-1,> 2.56 µM
same,IC50,HCC1187,> 2.56 µM
same,IC50,HCC38,> 2.56 µM
same,IC50,HSC-3,> 2.56 µM
same,IC50,JEG-3,> 2.56 µM
same,IC50,K5,> 2.56 µM
same,IC50,KARPAS-45,> 2.56 µM
same,IC50,KU812 cell line,> 2.56 µM
same,IC50,KYSE-140,> 2.56 µM
same,IC50,KYSE-270,> 2.56 µM
same,IC50,LS-1034,0.271 µM
same,IC50,MDA-MB-157,> 2.56 µM
same,IC50,MDA-MB-231,> 2.56 µM
same,IC50,MEL-HO,> 2.56 µM
same,IC50,NB13,> 2.56 µM
same,IC50,NB69,0.583 µM
same,IC50,NCI-H1304,> 2.56 µM
same,IC50,NCI-H1355,0.181 µM
same,IC50,NCI-H292,> 2.56 µM
same,IC50,NCI-H596,> 2.56 µM
same,IC50,NUGC-3,> 2.56 µM
same,IC50,OCI-AML2,> 2.56 µM
same,IC50,OMC-1,> 2.56 µM
same,IC50,RERF-LC-MS,> 2.56 µM
same,IC50,RPMI-7951,> 2.56 µM
same,IC50,SCC-15,> 2.56 µM
same,IC50,SK-LU-1,> 2.56 µM
same,IC50,SK-PN-DW,1.91 µM
same,IC50,SK-UT-1,> 2.56 µM
same,IC50,SW1783,> 2.56 µM
same,IC50,SW626,> 2.56 µM
same,IC50,SW948,> 2.56 µM
same,IC50,SiHa,> 2.56 µM
same,IC50,T84,1.21 µM
same,IC50,ALL-PO,> 2.56 µM
same,IC50,ATN-1,> 2.56 µM
same,IC50,BB30-HNC,> 2.56 µM
same,IC50,CAL-85-1,1.23 µM
same,IC50,TE-8,1.31 µM
same,IC50,TK-10,> 2.56 µM
same,IC50,U-118-MG,> 2.56 µM
same,IC50,UO-31,> 2.56 µM
same,IC50,UMUC3,> 2.56 µM
same,IC50,CCRF-CEM,> 2.56 µM
same,IC50,COLO-320-HSR,0.414 µM
same,IC50,COLO-668,0.847 µM
same,IC50,COLO-684,> 2.56 µM
CCC1=C[C@@H]2CN(C1)Cc1c([nH]c3ccccc13)[C@@](C(=O)OC)(c1cc3c(cc1OC)N(C)[C@H]1[C@@](O)(C(=O)OC)[C@H](OC(C)=O)[C@]4(CC)C=CCN5CC[C@]31[C@@H]54)C2 [VINORELBINE],IC50,COLO-824,0.0472 µM
same,IC50,DMS-79,> 0.064 µM
same,IC50,EKVX,> 0.064 µM
same,IC50,ETK-1,0.00692 µM
same,IC50,EW-18,0.00705 µM
same,IC50,GI-1,0.00354 µM
same,IC50,HCC1187,0.0139 µM
same,IC50,HCC38,0.00487 µM
same,IC50,HSC-3,0.00562 µM
same,IC50,JEG-3,0.0141 µM
same,IC50,K5,0.0419 µM
same,IC50,KARPAS-45,0.00574 µM
same,IC50,KU812 cell line,0.0093 µM
same,IC50,KYSE-140,0.0238 µM
same,IC50,KYSE-270,0.00316 µM
same,IC50,LS-1034,> 0.064 µM
same,IC50,MDA-MB-157,> 0.064 µM
same,IC50,MDA-MB-231,0.0374 µM
same,IC50,MEL-HO,0.00329 µM
same,IC50,NB13,0.00501 µM
same,IC50,NB69,0.0455 µM
same,IC50,NCI-H1304,0.0352 µM
same,IC50,NCI-H1355,0.0029 µM
same,IC50,NCI-H292,0.00505 µM
same,IC50,NCI-H596,> 0.064 µM
same,IC50,NUGC-3,0.00599 µM
same,IC50,OCI-AML2,0.0103 µM
same,IC50,OMC-1,> 0.064 µM
same,IC50,RERF-LC-MS,0.0102 µM
same,IC50,RPMI-7951,0.00882 µM
same,IC50,SCC-15,0.0087 µM
same,IC50,SK-LU-1,0.0518 µM
same,IC50,SK-PN-DW,0.0125 µM
same,IC50,SK-UT-1,0.00223 µM
same,IC50,SW1783,> 0.064 µM
same,IC50,SW626,0.0377 µM
same,IC50,SW948,0.0198 µM
same,IC50,SiHa,> 0.064 µM
same,IC50,T84,0.0539 µM
same,IC50,ALL-PO,0.00336 µM
same,IC50,ATN-1,0.00194 µM
same,IC50,BB30-HNC,0.000399 µM
same,IC50,CAL-85-1,0.0049 µM
same,IC50,TE-8,0.046 µM
same,IC50,TK-10,> 0.064 µM
same,IC50,U-118-MG,> 0.064 µM
same,IC50,UO-31,> 0.064 µM
same,IC50,UMUC3,0.0212 µM
same,IC50,CCRF-CEM,0.00456 µM
same,IC50,COLO-320-HSR,> 0.064 µM
same,IC50,COLO-668,0.0285 µM
same,IC50,COLO-684,0.0137 µM
Cc1ccc(Nc2nccc(N(C)c3ccc4c(C)n(C)nc4c3)n2)cc1S(N)(=O)=O [PAZOPANIB],IC50,COLO-824,> 8 µM
same,IC50,DMS-79,> 8 µM
same,IC50,EKVX,> 8 µM
same,IC50,ETK-1,> 8 µM
same,IC50,EW-18,> 8 µM
same,IC50,GI-1,2.23 µM
same,IC50,HCC1187,> 8 µM
same,IC50,HCC38,> 8 µM
same,IC50,HSC-3,> 8 µM
same,IC50,JEG-3,> 8 µM
same,IC50,K5,> 8 µM
same,IC50,KARPAS-45,> 8 µM
same,IC50,KU812 cell line,5.38 µM
same,IC50,KYSE-140,> 8 µM
same,IC50,KYSE-270,> 8 µM
same,IC50,LS-1034,> 8 µM
same,IC50,MDA-MB-157,> 8 µM
same,IC50,MDA-MB-231,> 8 µM
same,IC50,MEL-HO,> 8 µM
same,IC50,NB13,> 8 µM
same,IC50,NB69,> 8 µM
same,IC50,NCI-H1304,> 8 µM
same,IC50,NCI-H1355,> 8 µM
same,IC50,NCI-H292,> 8 µM
same,IC50,NCI-H596,> 8 µM
same,IC50,NUGC-3,> 8 µM
same,IC50,OCI-AML2,> 8 µM
same,IC50,OMC-1,> 8 µM
same,IC50,RERF-LC-MS,> 8 µM
same,IC50,RPMI-7951,> 8 µM
same,IC50,SCC-15,> 8 µM
same,IC50,SK-LU-1,3.19 µM
same,IC50,SK-PN-DW,> 8 µM
same,IC50,SK-UT-1,> 8 µM
same,IC50,SW1783,> 8 µM
same,IC50,SW626,> 8 µM
same,IC50,SW948,> 8 µM
same,IC50,SiHa,> 8 µM
same,IC50,T84,> 8 µM
same,IC50,ALL-PO,> 8 µM
same,IC50,ATN-1,> 8 µM
same,IC50,BB30-HNC,> 8 µM
same,IC50,CAL-85-1,> 8 µM
same,IC50,TE-8,6.16 µM
same,IC50,TK-10,> 8 µM
same,IC50,U-118-MG,> 8 µM
same,IC50,UO-31,> 8 µM
same,IC50,UMUC3,> 8 µM
same,IC50,CCRF-CEM,> 8 µM
same,IC50,COLO-320-HSR,> 8 µM
same,IC50,COLO-668,> 8 µM
same,IC50,COLO-684,> 8 µM
